Data: US7576125B2, “Melanogenesis inhibitor and skin preparation containing the same” (Takasago International Corporation, priority 2003, dated 2009)

Assays:
Assay type in all cases: cell-based
[1] = tested on: B16 melanoma cells; experiment: Melanogenesis inhibition test (visual evaluation) using B16 melanoma cells; conditions: 3 days culture
Description: The following tests a) and b) were conducted on the compounds shown in Synthesis Examples and Comparative Synthesis Examples to examine their melanogenesis-inhibiting effects. • a) Cytotoxicity test (using B16 melonoma cells) • b) Melanogenesis inhibition test (visual evaluation) (using B16 melonoma cells) Evaluation Methods
8×10^4 B16 melanoma cells were inoculated in a plastic-made culture flask (25 cm^2). The cells were cultured in a 10% serum-containing DMEN medium (produced by Nissui Pharmaceutical co., Ltd., trade name) in the presence of 5% carbon dioxide at 37° C. 3 days later, a test sample diluted with ethanol was added thereto, and culture was conducted for 3 days. After the completion of the culture, the medium was removed and the flask contents were washed with a phosphate buffer solution (hereinafter referred t as PBS). The cells were peeled from the flask inner wall using a medium containing trypsin and EDTA (ethylenediaminetetraacetic acid). The resulting cells suspension was centrifuged to recover cells. Part of the cells was taken and the number of cells was measured using a Coulter counter. […] A melanogenesis inhibition test was carried out in this concentration range. The cells obtained were washed once with PBS and then the whiteness of the precipitate was rated visually based on the following evaluation standard.
Evaluation Standard • −: Same as the solvent control (black) • +−: Slightly different from the solvent control (black-gray) • +: Clearly different from the solvent control (gray) • ++: Coloring of cells is very low (gray-white) • +++: No coloring of cells (white)

[2] = tested on: tyrosinase biosynthesis in B16 melanoma cells; experiment: Tyrosinase biosynthesis hindrance test (intra-cell tyrosinase activity); conditions: 2 days
Description: A tyrosinase activity hindrance test and a tyrosinase biosynthesis hindrance test were conducted according to the following test methods to examine the mechanism for hindrance of melanin denovo synthesis. […] In this method, tyrosinase biosynthesis hindrance is indicated indirectly by measuring intra-cell tyrosinase activity. 100 μl of a suspension containing 3×10^5/ml of B16 melanoma cells was inoculated into a 96-well plate, and culture was made at 37° C. overnight in 5% CO2. Next day, the medium was changed with 200 μl of a sample-containing culture medium, and culture was made for 2 days under the same conditions. Thereafter, the supernatant liquid was removed and the residue was washed with 200 μl of a phosphate buffer solution twice. Then, 100 μl of 1% Triton X100 was added and the mixture was allowed to stand at room temperature for 1 hour, followed by gentle shaking. Next, 100 μl of 1% DOPA was added. Measurement was made in the same manner as in the above test method for tyrosinase activity hindrance.

[3] = tested on: B16 melanoma cells; experiment: Cell propagation rate / cytotoxicity by MTT method on parallel plate

Row | SMILES | whiteness of the cell precipitate rated visually (melanogenesis inhibition) ([1]; Concentration 12.5 μg/ml) | further results
1 | CCCCOCc1ccc2c(c1)OCO2 [Synthesis Example 2, piperonyl n-butyl ether] | ++ | 
2 | COCc1ccc2c(c1)OCO2 [Synthesis Example 3, Piperonyl methyl ether] | − | 
3 | CCOCc1ccc2c(c1)OCO2 [Synthesis Example 4, Piperonyl ethyl ether] | − | 
4 | CCCOCc1ccc2c(c1)OCO2 [Synthesis Example 5, Piperonyl n-propyl ether] | + | 
5 | CC(C)COCc1ccc2c(c1)OCO2 [Synthesis Example 6, Piperonyl isobutyl ether] | ++ | 
6 | CC(C)CCOCc1ccc2c(c1)OCO2 [Synthesis Example 7, Piperonyl isoamyl ether] | ++ | 
7 | CCCCCCOCc1ccc2c(c1)OCO2 [Synthesis Example 8, Piperonyl n-hexyl ether] | ++ | 
8 | CCCCCCCCOCc1ccc2c(c1)OCO2 [Synthesis Example 9, Piperonyl n-octyl ether] | + | whiteness of the cell precipitate rated visually (melanogenesis inhibition) ([1]; Concentration 6.3 μg/ml): +
9 | O=c1cc(CO)occ1O [kojic acid] |  | Tyrosinase biosynthesis hindrance, Hindrance % ([2]; 50 ppm): 21.0%; Tyrosinase biosynthesis hindrance, Hindrance % ([2]; 100 ppm): 21.0%; Tyrosinase biosynthesis hindrance, Hindrance % ([2]; 200 ppm): 21.0%; Cell propagation rate % ([3]; 50 ppm): 100.8%; Cell propagation rate % ([3]; 100 ppm): 97.3%; Cell propagation rate % ([3]; 200 ppm): 96.2%
